Legend:
[1] = tested on: Trichomonas vaginalis; experiment: Growth inhibition of clinically isolated Trichomonas vaginalis in Trichomonas medium F (Neutral Red colour, inverted microscope); type: cell-based; details: for Color / Result of microscopic observation: 72 hours at 37° C.; for Result of microscopic observation: inverted microscope
Method: The effect on Trichomonas vaginalis was investigated for luliconazole of the compound represented by the general formula (1). That is, 5×10^6 cells of clinically isolated Trichomonas vaginalis were seeded in Trichomonas medium F (6.5 mL, contained in tube) produced by Fujiyakuhin Co., Ltd. containing Neutral Red as a marker, and the preculture was carried out for 72 hours (preculture). It was confirmed that Trichomonas grew, the acid was actively produced, and Neutral Red was changed to be yellow. After that, the preculture was added to Trichomonas medium F by every 100 μL in order to carry out the main culture, to which 0.5 mL of a test solution was added. In this situation, the number of protozoas in the solution of preculture was 1.5×10^5 cells/mL. Three series of test solutions were prepared, in which the luliconazole concentrations were 200 μM (final concentration: 35.2 μM), 100 μM (final concentration: 17.6 μM), and 50 μM (final concentration: 8.8 μM), as luliconazole dissolved in 10% methanol saline solution. 0.5 mL of vehicle was added as a control. As for the vehicle, 10% methanol saline solution (final concentration: 0 μM) was used. Stirring was sufficiently performed after the addition, followed by culturing at 37° C. for 72 hours. After the completion of the cultivation, the color was discriminated, and the state of protozoas was observed by using an inverted microscope. […] The same or equivalent investigation as that of Example 1 was performed while changing luliconazole to lanoconazole.

[2] = tested on: Chlamydia trachomatis (D/UW3/Cx); experiment: Anti-intracellular parasite action, Chlamydia inclusion bodies in HeLa 229 host cells (fluorescence staining); type: cell-based
Method: The anti-intracellular parasite action was investigated by using Chlamydia trachomatis (D/UW3/Cx). That is, Chlamydia trachomatis was cultured in the presence of ×2 dilution series of 8 to 64 μg/ml of luliconazole by using HeLa 229 cells as the host. MEM added with 8% thermally inactivated FBS, to which 1 μg/ml of cyclohexamide was added, was used as the medium, and the culture was performed for 72 hours in 5% carbon dioxide gas at 37° C. After the culture, inclusion bodies were subjected to the fluorescent staining to be apple green with Chlamydia FA reagent “Seiken” (produced by DENKA SEIKEN Co., Ltd.), and the observation was performed by using a fluorescence microscope.

[3] = final concentration 8.8 μM, Neutral Red marker
[4] = final concentration 17.6 μM, Neutral Red marker
[5] = final concentration 35.2 μM, Neutral Red marker (yellow = acid production by growing Trichomonas)

Row | Compound | Color [1, 3] | Result of microscopic observation ([1]; final concentration 8.8 μM) | Color [1, 4] | Result of microscopic observation ([1]; final concentration 17.6 μM) | Color [1, 5] | Result of microscopic observation ([1]; final concentration 35.2 μM) | observation result of Chlamydia inclusion bodies ([2]; treatment with 8 μg/mL, FIG. 1 panel (A)) | observation result of Chlamydia inclusion bodies ([2]; treatment with 16 μg/mL, FIG. 1 panel (B)) | observation result of Chlamydia inclusion bodies ([2]; treatment with 32 μg/mL, FIG. 1 panel (C)) | growth of Trichomonas ([1]; at 8.8 μM)
1 | N#C/C(=C1/SCC(c2ccccc2Cl)S1)n1ccnc1 (stereo not shown) [lanoconazole, 4-(2-chlorophenyl)-1,3-dithiolane-2-ylidene-1-imidazolyl acetonitrile] | yellow | large number of protozoas were observed | red | protozoas were observed slightly | red | no protozoa was observed | – | – | – | –
2 | N#C/C(=C1/SC[C@@H](c2ccc(Cl)cc2Cl)S1)n1ccnc1 [luliconazole, (R)-(−)-(E)-[4-(2,4-dichlorophenyl)-1,3-dithiolane-2-ylidene]-1-imidazolyl acetonitrile] | yellow | protozoas were observed slightly | red | no protozoa was observed | red | no protozoa was observed | dot-shaped Chlamydia inclusion bodies stained apple green were observed | dot-shaped Chlamydia inclusion bodies stained apple green were observed | No inclusion body was found | inhibits the growth
